Measurements as given in patent US20240368088A1, “EP4 ANTAGONIST COMPOUND AS WELL AS SALT, POLYMORPH AND USE THEREOF” (Wuhan Humanwell Innovative Drug Research and Development …, priority 2021, published 2024).
In brackets after ≈: the same amount, converted by molar mass.

How the values were obtained:
[1] = Hygroscopicity evaluation by dynamic vapor sorption (DVS); assay type: physicochemical
Protocol: Dynamic vapor sorption (DVS) curves are acquired on a DVS IntrInsic in Surface Measurement Systems (SMS). The relative humidity at 25° C. is corrected with the deliquescence points of LiCI, Mg (NO3)2, and KCI.
Starting at 0% RH, the test acquired the percentage change in mass of the sample when humidity changed (0% RH to 95% RH to 0% RH) at a constant temperature of 25° C.

[2] = Solid state stability (XRPD and HPLC after uncovered storage); conditions: for Relative to starting (%): HPLC purity; for Purity (area %): HPLC
Protocol: XRPD patterns are acquired on an X-ray powder diffraction analyzer manufactured by PANalytacal, and the scanning parameters are shown in Table A-1 below.
The free acid crystal form A and the crystal form A of the tromethamine salt were left to stand uncovered for 1/4 weeks at 25° C./60% RH and 40° C./75% RH, respectively, and then the physical and chemical stability of the samples was tested by XRPD and HPLC.

[3] = Dynamic solubility experiment at 37° C. in water, SGF, FaSSIF and FeSSIF; conditions: for solubility at 1 h / solubility at 2 h / solubility at 4 h / solubility at 24 h: 37 °C, thermodynamic from solid; for Crystal form change: XRPD of centrifuged solid; for pH: pH value of filtrate;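 for all read-outs here: at each sampling time, filtrate assayed by HPLC for concentration and for pH, centrifuged solid checked by XRPD, media SGF at pH 1.8, FaSSIF 6.5, FeSSIF 5.0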
Protocol: In the test, the purity, dynamic solubility and stability are tested by an Agilent 1260 high-performance liquid chromatograph.
The solid at a feeding concentration of 10 mg/mL (40 mg of solid in 4 mL of solvent, calculated as free acid) was rotationally mixed at 37° C., and the solubility of each sample in four systems of water, SGF, FaSSIF, and FeSSIF was determined at different time points (1 h, 2 h, 4 h, and 24 h). After sampling at each time point, the sample was centrifuged (at 10000 rpm) and filtered (through a 0.45 μm PTFE filter head), the filtrate was determined for HPLC concentration and pH value, and the centrifuged solid samples were tested for XRPD.
200.3 mg of NaCl and 105.0 mg of Triton X-100 were weighed out and added to a 50-mL volumetric flask, purified water was added, and the mixture was completely dissolved. 136 μL of concentrated hydrochloric acid (12 M) was added, and the pH was adjusted to 1.8 with 1 M hydrochloric acid or 1 M NaOH solution. Purified water was added, and the mixed solution was brought to volume.
0.34 g of anhydrous NaH2PO4, 0.44 g of NaOH, and 0.62 g of NaCl were weighed out and added to a 50-mL volumetric flask. Purified water was added, the mixture was completely dissolved, and the pH was adjusted to 6.5 with 1 M hydrochloric acid or 1 M NaOH solution. Purified water was added, and the mixed solution was brought to volume. 0.11 g of SIF powder was then weighed out, and the mixed solution was completely dissolved.
0.82 mL of glacial acetic acid, 0.40 g of NaOH, and 1.19 g of NaCl were added to a 50-mL volumetric flask. About 48 mL of purified water was added, the mixture was completely dissolved, and the pH was adjusted to 5.0 with 1 M hydrochloric acid or 1 M NaOH solution. Purified water was added, and the mixed solution was brought to volume. 0.56 g of SIF powder was then weighed out, and the mixed solution was completely dissolved.

[4] = Crystal form conversion on drying at room temperature; assay type: physicochemical
Protocol: The free acid crystal form A was dissolved in MIBK (methyl isobutyl ketone), and then the mixture was subjected to gas-liquid diffusion in an n-pentane atmosphere to obtain free acid crystal form B (XRPD pattern thereof shown in FIG. 5).

[5] = 25° C./60% RH/uncovered, 1 week
[6] = 25° C./60% RH/uncovered, 4 weeks
[7] = 40° C./75% RH/uncovered, 1 week
[8] = 40° C./75% RH/uncovered, 4 weeks
[9] = SGF, pH 1.8, simulated gastric fluid

C[C@H](NC(=O)c1c(C(F)F)nn(C)c1Oc1cccc(C(C)(F)F)c1)c1ccc(C(=O)O)cc1 [Free acid crystal form A, (S)-4-(1-(5-(3-(1,1-difluoroethyl)phenoxy)-3-(difluoromethyl)-1-methyl-1H-pyrazole-4-carboxamide)ethyl)benzoic acid]
hygroscopicity (in words) ([1]; DVS, 25° C./80% RH): almost no hygroscopicity
vapor sorption ([1]; DVS, 25° C./80% RH): 0.07%
crystal form after DVS test ([1]; XRPD before and after DVS, 0% RH to 95% RH to 0% RH, 25° C.): unchanged
hygroscopicity (summary statement) ([1]; beneficial effects summary): relatively low hygroscopicity
physicochemical stability (summary statement) [2]: good physicochemical stability
HPLC purity change after placement (in words) ([2]; 25° C./60% RH and 40° C./75% RH, uncovered, 1/4 weeks): not significantly changed
crystal form change after placement (in words) ([2]; 25° C./60% RH and 40° C./75% RH, uncovered, 1/4 weeks, XRPD): not changed
Relative to starting (%) [2, 5]: 99.81%
Relative to starting (%) [2, 6]: 99.83%
Relative to starting (%) [2, 7]: 99.79%
Relative to starting (%) [2, 8]: 99.77%
Purity (area %) [2, 5]: 94.14 area %
Purity (area %) [2, 6]: 94.19 area %
Purity (area %) [2, 7]: 94.15 area %
Purity (area %) [2, 8]: 94.13 area %
Purity (area %) ([2]; Starting): 94.35 area %
solubility at 1 h ([3]; FaSSIF, pH 6.5, fassif): 1960 µg/mL (≈ 4090 µM)
solubility at 2 h ([3]; FaSSIF, pH 6.5, fassif): 1830 µg/mL (≈ 3820 µM)
solubility at 4 h ([3]; FaSSIF, pH 6.5, fassif): 1860 µg/mL (≈ 3880 µM)
solubility at 24 h ([3]; FaSSIF, pH 6.5, fassif): 1590 µg/mL (≈ 3320 µM)
solubility at 1 h ([3]; FeSSIF, pH 5, fessif): 210 µg/mL (≈ 438 µM)
solubility at 2 h ([3]; FeSSIF, pH 5, fessif): 220 µg/mL (≈ 459 µM)
solubility at 4 h ([3]; FeSSIF, pH 5, fessif): 220 µg/mL (≈ 459 µM)
solubility at 24 h ([3]; FeSSIF, pH 5, fessif): 210 µg/mL (≈ 438 µM)
solubility at 1 h [3, 9]: 40 µg/mL (≈ 83.4 µM)
solubility at 2 h [3, 9]: 40 µg/mL (≈ 83.4 µM)
solubility at 4 h [3, 9]: 50 µg/mL (≈ 104 µM)
solubility at 24 h [3, 9]: 40 µg/mL (≈ 83.4 µM)
Crystal form change ([3]; FaSSIF, 37° C., 1 h): No
Crystal form change ([3]; FaSSIF, 37° C., 2 h): No
Crystal form change ([3]; FaSSIF, 37° C., 4 h): No
Crystal form change ([3]; FaSSIF, 37° C., 24 h): No
Crystal form change ([3]; FeSSIF, 37° C., 1 h, Yes^a: converted to the free acid crystal form A): No
Crystal form change ([3]; FeSSIF, 37° C., 2 h, Yes^a: converted to the free acid crystal form A): No
Crystal form change ([3]; FeSSIF, 37° C., 4 h, Yes^a: converted to the free acid crystal form A): No
Crystal form change ([3]; FeSSIF, 37° C., 24 h, Yes^a: converted to the free acid crystal form A): No
Crystal form change ([3]; H2O, 37° C., 1 h): No
Crystal form change ([3]; H2O, 37° C., 2 h): No
Crystal form change ([3]; H2O, 37° C., 4 h): No
Crystal form change ([3]; H2O, 37° C., 24 h): No
Crystal form change ([3]; SGF, 37° C., 1 h, Yes^a: converted to the free acid crystal form A): No
Crystal form change ([3]; SGF, 37° C., 2 h, Yes^a: converted to the free acid crystal form A): No
Crystal form change ([3]; SGF, 37° C., 4 h, Yes^a: converted to the free acid crystal form A): No
Crystal form change ([3]; SGF, 37° C., 24 h, Yes^a: converted to the free acid crystal form A): No
pH ([3]; FaSSIF, 37° C., 1 h): 6.1
pH ([3]; FaSSIF, 37° C., 2 h): 6.1
pH ([3]; FaSSIF, 37° C., 4 h): 6.1
pH ([3]; FaSSIF, 37° C., 24 h): 6.1
pH ([3]; FeSSIF, 37° C., 1 h): 4.9
pH ([3]; FeSSIF, 37° C., 2 h): 4.9
pH ([3]; FeSSIF, 37° C., 4 h): 4.9
pH ([3]; FeSSIF, 37° C., 24 h): 5.0
pH ([3]; H2O, 37° C., 1 h): 8.3
pH ([3]; H2O, 37° C., 2 h): 8.4
pH ([3]; H2O, 37° C., 4 h): 8.3
pH ([3]; H2O, 37° C., 24 h): 4.8
pH ([3]; SGF, 37° C., 1 h): 1.8
pH ([3]; SGF, 37° C., 2 h): 1.8
pH ([3]; SGF, 37° C., 4 h): 1.8
pH ([3]; SGF, 37° C., 24 h): 1.8
solubility at 1 h ([3]; water): 80 µg/mL (≈ 167 µM)
solubility at 2 h ([3]; water): 80 µg/mL (≈ 167 µM)
solubility at 4 h ([3]; water): 90 µg/mL (≈ 188 µM)
solubility at 24 h ([3]; water): 130 µg/mL (≈ 271 µM)
crystal form after the vehicle solubility tests ([3]; water, SGF, FaSSIF, FeSSIF, 37° C., XRPD): unchanged

C[C@H](NC(=O)c1c(C(F)F)nn(C)c1Oc1cccc(C(C)(F)F)c1)c1ccc(C(=O)O)cc1 [free acid crystal form B, (S)-4-(1-(5-(3-(1,1-difluoroethyl)phenoxy)-3-(difluoromethyl)-1-methyl-1H-pyrazole-4-carboxamide)ethyl)benzoic acid]
crystal form after being dried at room temperature [4]: converted into the free acid crystal form A
